Experimental data: ChEMBL document CHEMBL1130306, “Asymmetric synthesis of a conformationally constrained N-phosphonoalkyl dipeptide” (Bioorg Med Chem Lett, 1997)
Active and inactive are the calls of the source.

Assays:
[1] = target: T1, Interstitial collagenase (Homo sapiens) (UniProt P03956); assay: Inhibition of human recombinant fibroblast collagenase (MMP-1) at 10e-4 M (No significant activity)
T1 sequence (whole entry): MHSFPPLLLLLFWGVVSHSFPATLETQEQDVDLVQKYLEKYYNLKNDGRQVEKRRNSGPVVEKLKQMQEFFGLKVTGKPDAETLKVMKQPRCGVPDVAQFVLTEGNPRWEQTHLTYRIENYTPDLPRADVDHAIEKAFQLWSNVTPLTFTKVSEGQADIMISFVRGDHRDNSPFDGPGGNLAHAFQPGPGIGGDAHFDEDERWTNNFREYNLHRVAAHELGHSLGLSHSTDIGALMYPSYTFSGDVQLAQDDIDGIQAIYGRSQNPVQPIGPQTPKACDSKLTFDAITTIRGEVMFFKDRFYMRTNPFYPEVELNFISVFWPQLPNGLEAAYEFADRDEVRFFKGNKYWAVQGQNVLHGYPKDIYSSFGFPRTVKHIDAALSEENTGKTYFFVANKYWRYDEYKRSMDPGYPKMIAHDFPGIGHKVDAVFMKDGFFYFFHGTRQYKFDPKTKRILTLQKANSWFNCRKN

[2] = target: 72 kDa type IV collagenase (Homo sapiens) (UniProt P08253); assay: Inhibition of human recombinant gelatinase-A (MMP-2) at 10e-4 M (No significant activity)
[3] = target: Matrix metalloproteinase-9 (Homo sapiens) (UniProt P14780); assay: Inhibition of human recombinant Matrix metalloprotease-9 at 10e-4 M (No significant activity)

Measured: Activity

Chain of 72 kDa type IV collagenase (Homo sapiens) (P08253 110-660 limits assumed): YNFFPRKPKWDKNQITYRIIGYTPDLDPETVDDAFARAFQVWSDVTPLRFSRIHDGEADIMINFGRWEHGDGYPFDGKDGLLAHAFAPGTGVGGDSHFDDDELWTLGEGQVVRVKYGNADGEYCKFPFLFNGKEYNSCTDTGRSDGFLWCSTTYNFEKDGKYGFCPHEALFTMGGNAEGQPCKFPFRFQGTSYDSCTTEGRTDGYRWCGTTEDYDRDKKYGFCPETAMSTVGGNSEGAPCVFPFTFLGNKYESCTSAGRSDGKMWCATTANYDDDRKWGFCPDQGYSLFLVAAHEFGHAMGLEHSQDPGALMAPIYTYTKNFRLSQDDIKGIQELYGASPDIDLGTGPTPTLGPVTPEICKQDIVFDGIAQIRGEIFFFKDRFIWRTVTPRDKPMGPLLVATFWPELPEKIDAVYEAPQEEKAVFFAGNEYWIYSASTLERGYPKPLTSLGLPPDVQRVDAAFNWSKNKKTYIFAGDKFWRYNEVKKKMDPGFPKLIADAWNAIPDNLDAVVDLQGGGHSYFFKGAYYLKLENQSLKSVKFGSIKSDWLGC
Chain of Matrix metalloproteinase-9 (Homo sapiens) (P14780 whole entry): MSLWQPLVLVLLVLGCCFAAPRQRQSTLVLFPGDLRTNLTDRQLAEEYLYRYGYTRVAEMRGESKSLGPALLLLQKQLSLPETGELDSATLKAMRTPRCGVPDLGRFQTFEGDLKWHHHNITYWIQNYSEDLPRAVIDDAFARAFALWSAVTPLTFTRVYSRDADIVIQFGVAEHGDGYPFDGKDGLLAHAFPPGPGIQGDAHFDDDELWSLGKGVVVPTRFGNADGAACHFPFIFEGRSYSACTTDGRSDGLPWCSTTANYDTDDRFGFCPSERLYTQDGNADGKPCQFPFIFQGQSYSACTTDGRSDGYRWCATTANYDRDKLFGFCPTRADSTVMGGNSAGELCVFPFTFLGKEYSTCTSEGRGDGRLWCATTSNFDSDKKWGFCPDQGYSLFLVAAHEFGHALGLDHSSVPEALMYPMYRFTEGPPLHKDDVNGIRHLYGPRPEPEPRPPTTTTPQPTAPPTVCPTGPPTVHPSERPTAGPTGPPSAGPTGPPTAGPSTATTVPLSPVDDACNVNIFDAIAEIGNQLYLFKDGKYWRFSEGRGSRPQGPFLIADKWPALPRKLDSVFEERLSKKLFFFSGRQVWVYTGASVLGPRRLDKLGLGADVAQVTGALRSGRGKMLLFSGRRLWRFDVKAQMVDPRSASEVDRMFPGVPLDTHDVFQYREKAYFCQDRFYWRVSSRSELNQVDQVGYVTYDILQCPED

CNC(=O)[C@H](Cc1c[nH]c2ccccc12)NC(=O)[C@@H]1CCC[C@@H](P(=O)(O)O)N1
inactive: all assays above

CNC(=O)[C@H](Cc1c[nH]c2ccccc12)NC(=O)[C@H]1CCC[C@@H](P(=O)(O)O)N1
inactive: all assays above
